# Activity calls are given as the source filed them. No cut-off for these calls is given here.
# How the values were obtained:
# MOLT-3 [1] = experiment: In vitro toxicity against acute T cell leukemia (MOLT-3) at a concentration of 10 ug/ml; format: functional, Homo sapiens
# PHA-Ly [2] = experiment: In vitro toxicity against phytohemagglutininin-stimulated peripheral blood lymphocytes (PHA-Ly) at a concentration of 1.0 ug/ml; format: functional, Homo sapiens
# U-937 [3] = experiment: In vitro toxicity against histocytic lymphoma (U-937) at a concentration of 1.0 ug/ml; format: functional, Homo sapiens
# Raji [4] = experiment: In vitro toxicity against Burkitt's lymphoma (B-cell) (Raji) at a concentration of 1.0 ug/ml; format: functional, Homo sapiens
# PHA-Ly [5] = experiment: In vitro toxicity against phytohemagglutininin-stimulated peripheral blood lymphocytes (PHA-Ly) at a concentration of 10 ug/ml; format: functional, Homo sapiens
# PHA-Ly [6] = experiment: In vitro toxicity against phytohemagglutininin-stimulated peripheral blood lymphocytes (PHA-Ly) at a concentration of 0.1 ug/ml; format: functional, Homo sapiens
# IM-9 [7] = experiment: In vitro toxicity against myeloma cell line (IM-9) at a concentration of 1.0 ug/ml; format: functional, Homo sapiens
# Raji [8] = experiment: In vitro toxicity against Burkitt's lymphoma (B-cell) (Raji) at a concentration of 0.01 ug/ml; format: functional, Homo sapiens
# IM-9 [9] = experiment: In vitro toxicity against myeloma cell line (IM-9) at a concentration of 0.1 ug/ml; format: functional, Homo sapiens
# Raji [10] = experiment: In vitro toxicity against Burkitt's lymphoma (B-cell) (Raji) at a concentration of 10 ug/ml; format: functional, Homo sapiens
# Raji [11] = experiment: In vitro toxicity against Burkitt's lymphoma (B-cell) (Raji) at a concentration of 0.1 ug/ml; format: functional, Homo sapiens
# IM-9 [12] = experiment: In vitro toxicity against myeloma cell line (IM-9) at a concentration of 0.01 ug/ml; format: functional, Homo sapiens
# U-937 [13] = experiment: In vitro toxicity against histocytic lymphoma (U-937) at a concentration of 10 ug/ml; format: functional, Homo sapiens
# MOLT-3 [14] = experiment: In vitro toxicity against acute T cell leukemia (MOLT-3) at a concentration of 1.0 ug/ml; format: functional, Homo sapiens
# U-937 [15] = experiment: In vitro toxicity against histocytic lymphoma (U-937) at a concentration of 0.1 ug/ml; format: functional, Homo sapiens
# MOLT-3 [16] = experiment: In vitro toxicity against acute T cell leukemia (MOLT-3) at a concentration of 0.01 ug/ml; format: functional, Homo sapiens
# U-937 [17] = experiment: In vitro toxicity against histocytic lymphoma (U-937) at a concentration of 0.01 ug/ml; format: functional, Homo sapiens
# IM-9 [18] = experiment: In vitro toxicity against myeloma cell line (IM-9) at a concentration of 10 ug/ml; format: functional, Homo sapiens
# PHA-Ly [19] = experiment: In vitro toxicity against phytohemagglutininin-stimulated peripheral blood lymphocytes (PHA-Ly) at a concentration of 0.01 ug/ml; format: functional, Homo sapiens
# MOLT-3 [20] = experiment: In vitro toxicity against acute T cell leukemia (MOLT-3) at a concentration of 0.1 ug/ml; format: functional, Homo sapiens
# U-937 [21] = experiment: In vitro toxicity against histocytic lymphoma (U-937) at a concentration of 10 ug/ml; No significant toxicity; format: functional, cell-based; details: Homo sapiens
# IM-9 [22] = experiment: In vitro toxicity against myeloma cell line (IM-9) at a concentration of 10 ug/ml; No significant toxicity; format: functional, cell-based; details: Homo sapiens
# MOLT-3 [23] = experiment: In vitro toxicity against acute T cell leukemia (MOLT-3) at a concentration of 10 ug/ml; No significant toxicity; format: functional, cell-based; details: Homo sapiens
# PHA-Ly [24] = experiment: In vitro toxicity against phytohemagglutininin-stimulated peripheral blood lymphocytes (PHA-Ly) at a concentration of 10 ug/ml; No significant toxicity; format: functional, cell-based; details: Homo sapiens
# Raji [25] = experiment: In vitro toxicity against Burkitt's lymphoma (B-cell) (Raji) at a concentration of 10 ug/ml; No significant toxicity; format: functional, cell-based; details: Homo sapiens
smiles,measurement,setting,value
"Nc1nc(Cl)nc2c1ncn2[C@@H]1O[C@H](CO)C(O)[C@H]1F (single isomer, unassigned)",Toxicity,MOLT-3 [1],2.6%
same,Toxicity,PHA-Ly [2],17%
same,Toxicity,U-937 [3],4.9%
same,Toxicity,Raji [4],9.1%
same,Toxicity,PHA-Ly [5],4%
same,Toxicity,PHA-Ly [6],90%
same,Toxicity,IM-9 [7],19%
same,Toxicity,Raji [8],103%
same,Toxicity,IM-9 [9],110%
same,Toxicity,Raji [10],2.5%
same,Toxicity,Raji [11],68%
same,Toxicity,IM-9 [12],108%
same,Toxicity,U-937 [13],1.8%
same,Toxicity,MOLT-3 [14],3.3%
same,Toxicity,U-937 [15],70%
same,Toxicity,MOLT-3 [16],106%
same,Toxicity,U-937 [17],99%
same,Toxicity,IM-9 [18],5.7%
same,Toxicity,PHA-Ly [19],98%
same,Toxicity,MOLT-3 [20],79%
"Nc1nc(Cl)nc2ncn([C@@H]3O[C@H](CO)C(O)[C@H]3F)c12 (single isomer, unassigned)",Toxicity,U-937 [21],inactive
same,Toxicity,IM-9 [22],inactive
same,Toxicity,MOLT-3 [23],inactive
same,Toxicity,PHA-Ly [24],inactive
same,Toxicity,Raji [25],inactive

# Source: ChEMBL document CHEMBL1151574, “Convergent syntheses and cytostatic properties of 2-chloro-2-deoxy-2-fluoroadenosine and its N7-isomer” (1995)
